Like-named read-outs stand apart in the source and are kept apart here. Numbered stars: 1 amine (or outer) side, 2 acyl side, 3 side chain; on linkers, the order of the positions; unused ones are H or OH. Bridge positions count the residues as written; N and C are the ends. Square brackets hold non-standard residues; d marks the D form. Peptide text beside a SMILES is read from it. * marks the point of attachment. C20 diacid = O=C(O)CCCCCCCCCCCCCCCCCCC(=O)*; γGlu = O=C(O)[C@H](CCC(=O)[*:2])N[*:1]; NMeI = CC[C@H](C)[C@H](NC)C(=O)O; Sar = CNCC(=O)O
Experiments:
[1] = Assessment of physical stability: fibril formation detected with Thioflavin T (ThT), lag-time; type: physicochemical; conditions: 1 mg/ml peptide, 40 µM ThT, FND = Fibrillation not detected
Method: Solutions containing (i) 1 mg/ml of test peptide, 40 µM ThT and 50 mM phosphate (Ph) buffer (pH 7.0), (ii) 1 mg/ml of test peptide, 40 µM ThT and 50 mM histidine (His) buffer (pH 7.0), and (iii) 1 mg/ml of test peptide, 40 µM ThT and 50 mM acetate (Ac) buffer (pH 4.0), were loaded in a 96-well black fluorescence plate (clear bottom) in triplicate. Data were collected at fixed intervals of 10 min, each preceded by 300 s of automixing (agitation), over a period of 96 hours at 40° C. Physical stability, expressed as lag-time of fibril formation (in hours), was defined as the intersection between two linear regressions representing the initial stable phase and the growth phase.

[2] = biological target: T1, human calcitonin receptor (hCTR2) (Homo sapiens, UniProt P30988); experiment: hCTR2 assay: induction of cAMP (AlphaScreen cAMP Assay kit) in COS7 cells expressing hCTR2; type: cell-based
T1 construct: expressed in transfected cells
T1 sequence (P30988 25-474): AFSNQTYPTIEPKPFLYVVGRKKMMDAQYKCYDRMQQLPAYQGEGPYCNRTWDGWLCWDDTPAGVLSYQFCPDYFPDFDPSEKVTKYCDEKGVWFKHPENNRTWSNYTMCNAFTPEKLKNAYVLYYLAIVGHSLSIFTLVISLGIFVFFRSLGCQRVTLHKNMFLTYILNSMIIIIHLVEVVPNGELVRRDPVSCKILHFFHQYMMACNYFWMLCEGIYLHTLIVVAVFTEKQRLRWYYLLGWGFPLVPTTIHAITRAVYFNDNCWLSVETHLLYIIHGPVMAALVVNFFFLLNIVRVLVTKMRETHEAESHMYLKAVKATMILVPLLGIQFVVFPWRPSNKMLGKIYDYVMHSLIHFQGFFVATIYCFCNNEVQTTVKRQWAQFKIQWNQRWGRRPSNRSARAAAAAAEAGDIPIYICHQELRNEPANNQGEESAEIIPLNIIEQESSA
Outline: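 Peptide-induced cAMP in hCTR2-expressing COS7 cells, 15 min at 37° C with phosphodiesterase inhibitor IBMX (100 µM), detected by AlphaScreen; potency from 4PL curves.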

[3] = biological target: T2, human amylin receptor 3 (hAMYR3) consisting of hCTR2 co-expressed with human Receptor Activity Modifying Protein 3 (hRAMP3) (Homo sapiens, UniProt O60896+P30988); experiment: hAMYR3 assay: induction of cAMP (AlphaScreen cAMP Assay kit) in COS7 cells expressing hAMYR3; type: cell-based
T2 construct: expressed in transfected cells
T2 sequence (P30988 25-474): T1 sequence (P30988 25-474)
T2 sequence (O60896 24-148 partner): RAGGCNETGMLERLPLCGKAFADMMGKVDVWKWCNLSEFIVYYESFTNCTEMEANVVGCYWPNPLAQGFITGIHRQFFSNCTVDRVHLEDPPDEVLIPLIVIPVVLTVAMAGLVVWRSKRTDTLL
Outline: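 cAMP accumulation read by AlphaScreen in lysates of RAMP-naive COS7 cells stably transfected with hCTR2 plus hRAMP3. Cells exposed to peptide dilutions for 15 min, 37° C, with 100 µM IBMX; 4PL fitting gave EC50 and efficacy relative to pramlintide.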

[4] = Solubility assessment (turbidity absorbance at 325 nm); type: physicochemical; conditions: stock 2 mg/ml diluted 1:1, ambient temperature (typically 25°C), n=1; for Solubility, Acetate buffer pH 4: 100 mM acetate buffer pH 4.0; for Solubility, Acetate buffer pH 5: 100 mM acetate buffer pH 5.0; for Solubility, Histidine buffer pH 6: 100 mM histidine buffer pH 6.0; for Solubility, Histidine buffer pH 7: 100 mM histidine buffer pH 7.0; for Solubility, Phosphate buffer pH 6: 100 mM phosphate buffer pH 6.0; for Solubility, Phosphate buffer pH 7: 100 mM phosphate buffer pH 7.0; for Solubility, Phosphate buffer pH 7.5: 100 mM phosphate buffer pH7.5
Outline: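 Read-out: turbidity as absorbance at 325 nm (280 nm also read), single samples, ambient temperature of typically 25°C. Samples were a 1:1 mix of 2 mg/ml stock (water, pH 2.5) with 100 mM acetate, histidine or phosphate buffers spanning pH 4.0–7.5. Cut-off: A325 ≤ 0.02 indicates ≥ 1 mg/ml.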

Compound	Fibrillation lag time (hours) pH 4.0 (Ac) ([1]; 50 mM acetate buffer pH 4.0, 96 hours at 40°C) [hours]	Fibrillation lag time (hours) pH 7.0 (Ph) ([1]; 50 mM phosphate buffer pH 7.0, 96 hours at 40°C) [hours]	EC50 ([2]; cAMP induction in COS7 cells expressing hCTR2, average of a minimum of 3 determinations, read-out: hCTR2 EC50) [pM]	EC50 ([3]; cAMP induction in COS7 cells expressing hAMYR3, average of a minimum of 3 determinations, read-out: hAMY R3 EC50) [pM]	Solubility, Acetate buffer pH 4 [4]	Solubility, Acetate buffer pH 5 [4]	Solubility, Histidine buffer pH 6 [4]	Solubility, Histidine buffer pH 7 [4]	Solubility, Phosphate buffer pH 6 [4]	Solubility, Phosphate buffer pH 7 [4]	Solubility, Phosphate buffer pH 7.5 [4]	EC50 [2] [pM]	EC50 [3] [pM]
CC[C@H](C)[C@H](NC(=O)[C@@H]1CCCN1C(=O)CNC(=O)[C@H](Cc1ccccc1)NC(=O)[C@H](CC(N)=O)NC(=O)[C@H](CC(N)=O)NC(=O)[C@H](CO)NC(=O)[C@H](CO)NC(=O)[C@H](Cc1c[nH]cn1)NC(=O)[C@@H](NC(=O)[C@H](CC(C)C)NC(=O)[C@H](Cc1ccccc1)NC(=O)[C@H](CC(N)=O)NC(=O)[C@H](C)NC(=O)[C@H](CC(C)C)NC(=O)[C@H](CCCNC(=N)N)NC(=O)[C@H](CCC(N)=O)NC(=O)[C@@H](NC(=O)[C@H](C)NC(=O)[C@@H]1CSSC[C@H](NC(=O)[C@@H](N)CCCCN)C(=O)N[C@@H](CC(N)=O)C(=O)N[C@@H]([C@@H](C)O)C(=O)N[C@@H](C)C(=O)N[C@@H]([C@@H](C)O)C(=O)N1)[C@@H](C)O)C(C)C)C(=O)N[C@@H](CC(C)C)C(=O)N1CCC[C@H]1C(=O)N1CCC[C@H]1C(=O)N[C@H](C(=O)N[C@@H](CC(N)=O)C(=O)N[C@H](C(=O)NCC(=O)N[C@@H](CO)C(=O)N[C@@H](CC(N)=O)C(=O)N[C@H](C(=O)N[C@@H](Cc1ccc(O)cc1)C(N)=O)[C@@H](C)O)C(C)C)[C@@H](C)O [pramlin tide]	48	2											
CC[C@H](C)[C@@H](C(=O)N[C@@H](CC(C)C)C(=O)N[C@@H](CO)C(=O)N[C@@H](CO)C(=O)N[C@H](C(=O)N[C@@H](CCC(=O)O)C(=O)N[C@H](C(=O)NCC(=O)N[C@@H](CO)C(=O)N[C@@H](CCC(=O)O)C(=O)N[C@H](C(=O)N1CCC[C@H]1C(N)=O)[C@@H](C)O)C(C)C)[C@@H](C)O)N(C)C(=O)[C@H](C)NC(=O)CN(C)C(=O)[C@H](Cc1ccccc1)NC(=O)[C@H](CO)NC(=O)[C@H](CO)NC(=O)[C@H](CO)NC(=O)[C@H](CO)NC(=O)[C@H](CCCNC(=N)N)NC(=O)[C@H](Cc1c[nH]cn1)NC(=O)[C@H](CC(C)C)NC(=O)[C@H](Cc1ccccc1)NC(=O)[C@H](CCC(=O)O)NC(=O)[C@H](C)NC(=O)[C@H](CC(C)C)NC(=O)[C@H](CCCNC(=N)N)NC(=O)[C@H](CCC(=O)O)NC(=O)[C@@H](NC(=O)[C@H](C)NC(=O)[C@@H]1CSSC[C@H](NC(=O)[C@H](CCCCN)NC(=O)[C@H](CCCCN)NC(=O)CC[C@H](NC(=O)CCCCCCCCCCCCCCCCCCC(=O)O)C(=O)O)C(=O)N[C@@H](CCC(=O)O)C(=O)N[C@@H]([C@@H](C)O)C(=O)N[C@@H](C)C(=O)N[C@@H]([C@@H](C)O)C(=O)N1)[C@@H](C)O [Compound 163, [19CD]-isoGlu-KKC()ETATC()ATERLAEFLHRSSSSF-Gly(Me)-A-Ile(Me)-LSSTEVGSETP-NH2] ({C20 diacid-γGlu}-KKCETATCATERLAEFLHRSSSSF[Sar]A[NMeI]LSSTEVGSETP-NH2; disulfide 3-8)			420	740	SS (SS indicates solubility ≥ 1mg/ml)	SS (SS indicates solubility ≥ 1mg/ml)	SS (SS indicates solubility ≥ 1mg/ml)	SS (SS indicates solubility ≥ 1mg/ml)	SS (SS indicates solubility ≥ 1mg/ml)	II (II indicates solubility ≤ 1 mg/ml)	SS (SS indicates solubility ≥ 1mg/ml)		
CC[C@H](C)[C@@H](C(=O)N[C@@H](CC(C)C)C(=O)N[C@@H](CO)C(=O)N[C@@H](CO)C(=O)N[C@H](C(=O)N[C@@H](CC(N)=O)C(=O)N[C@H](C(=O)NCC(=O)N[C@@H](CO)C(=O)N[C@@H](CC(N)=O)C(=O)N[C@H](C(=O)N1CCC[C@H]1C(=O)NC)[C@@H](C)O)C(C)C)[C@@H](C)O)N(C)C(=O)[C@H](C)NC(=O)CN(C)C(=O)[C@H](Cc1ccccc1)NC(=O)[C@H](CC(N)=O)NC(=O)[C@H](CC(N)=O)NC(=O)[C@H](CO)NC(=O)[C@H](CO)NC(=O)[C@H](CCCNC(=N)N)NC(=O)[C@H](Cc1c[nH]cn1)NC(=O)[C@H](CC(C)C)NC(=O)[C@H](Cc1ccccc1)NC(=O)[C@H](CCC(=O)O)NC(=O)[C@H](C)NC(=O)[C@H](CC(C)C)NC(=O)[C@H](CCCNC(=N)N)NC(=O)[C@H](CCC(N)=O)NC(=O)[C@@H](NC(=O)[C@H](C)NC(=O)[C@@H]1CSSC[C@H](NC(=O)[C@H](CCCNC(=N)N)NC(=O)CC[C@H](NC(=O)CCCCCCCCCCCCCCCCCCC(=O)O)C(=O)O)C(=O)N[C@@H](CC(N)=O)C(=O)N[C@@H]([C@@H](C)O)C(=O)N[C@@H](C)C(=O)N[C@@H]([C@@H](C)O)C(=O)N1)[C@@H](C)O [Compound 152, [19CD]-isoGlu-RC()NTATC()ATQRLAEFLHRSSNNF-Gly(Me)-A-Ile(Me)-LSSTNVGSNTP-NHMe] ({C20 diacid-γGlu}-RCNTATCATQRLAEFLHRSSNNF[Sar]A[NMeI]LSSTNVGSNTP-NHMe; disulfide 2-7)					SS (SS indicates solubility ≥ 1mg/ml)	SS (SS indicates solubility ≥ 1mg/ml)	SS (SS indicates solubility ≥ 1mg/ml)	SS (SS indicates solubility ≥ 1mg/ml)	SS (SS indicates solubility ≥ 1mg/ml)	SS (SS indicates solubility ≥ 1mg/ml)	SS (SS indicates solubility ≥ 1mg/ml)	950	5200
